These results are taken from ChEMBL document CHEMBL1143496, “Privileged structure based ligands for melanocortin receptors--substituted benzylic piperazine derivatives” (Bioorg Med Chem Lett, 2005).

SMILES strings stand for the structures.

For the assay, the target named is Melanocortin receptor 4 (Homo sapiens, UniProt P32245). Briefly: Inhibition of [125I]-NDP MSH binding to human Melanocortin 4 receptor.
Melanocortin receptor 4, sequence (P32245 whole entry): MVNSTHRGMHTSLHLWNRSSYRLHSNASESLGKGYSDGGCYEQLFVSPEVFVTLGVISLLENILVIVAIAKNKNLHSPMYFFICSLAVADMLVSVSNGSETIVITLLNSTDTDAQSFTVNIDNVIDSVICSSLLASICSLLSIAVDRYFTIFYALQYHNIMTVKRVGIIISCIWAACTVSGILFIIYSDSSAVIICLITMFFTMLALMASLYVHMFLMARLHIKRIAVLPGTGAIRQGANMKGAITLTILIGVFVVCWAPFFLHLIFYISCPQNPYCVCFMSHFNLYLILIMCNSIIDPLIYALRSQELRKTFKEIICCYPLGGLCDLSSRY
Consider `CCN(CC)CC(CCCc1ccccc1)N1CCN(C)CC1` (configuration not stated), for which the inhibitory constant (Ki) amounted to 110 nM. As for `CCN(CC)CC(c1cccc(C(F)(F)F)c1)N1CCN(C)CC1` (configuration not stated), the figure is 150 nM; as for `CC(c1ccccc1)N1CCN(C)CC1` (configuration not stated), 700 nM; as for `CCN(CC)CC(CCc1ccccc1)N1CCN(C)CC1` (configuration not stated), 130 nM. The value for `CCN(CC)CC(c1ccc(F)cc1F)N1CCN(C)CC1` (configuration not stated) was 100 nM; that for `COC(=O)NCC(c1ccccc1F)N1CCN(C)CC1` (configuration not stated) was 483 nM.

On to `CCN(CC(c1ccccc1F)N1CCN(C)CC1)C(C)=O` (configuration not stated), for which the affinity, expressed as Ki, was 106 nM. As for `CCN(CC)C[C@H](c1ccccc1)N1CCN(C)CC1`, the figure is 190 nM.

In turn, `CCN(CC)C(=O)C(c1ccccc1F)N1CCN(C)CC1` (configuration not stated) registered an inhibition constant Ki of 125 nM.

For the compound `CCN(CC)CC(c1ccccc1Cl)N1CCN(C)CC1` (configuration not stated), affinity was put at a Ki of 70 nM.

`CCN(CC)CC(c1ccccc1C)N1CCN(C)CC1` (configuration not stated) registered an inhibition constant (Ki) of 70 nM. On to `CCN(CC)CC(c1ccccc1F)N1CCN(C)CC1` (configuration not stated), for which the Ki worked out at 20 nM. `CN1CCN(C(CNS(C)(=O)=O)c2ccccc2F)CC1` (configuration not stated) yielded an inhibition constant Ki of 472 nM.

Compound `CCN(CC(c1ccccc1F)N1CCN(C)CC1)C(=O)OC` (configuration not stated) showed an inhibition constant (Ki) of 261 nM.

For the compound `CCN(CC(c1ccccc1F)N1CCN(C)CC1)S(C)(=O)=O` (configuration not stated), the Ki turned out to be 157 nM. As for `CC(=O)NCC(c1ccccc1F)N1CCN(C)CC1` (configuration not stated), the figure is 467 nM; as for `CCN(CC)CC(c1ccc(C(F)(F)F)cc1)N1CCN(C)CC1` (configuration not stated), 200 nM. As for `CCN(CC)CC(c1c(F)cccc1F)N1CCN(C)CC1` (configuration not stated), the figure is 150 nM.

`CCN(CC)C[C@@H](c1ccccc1F)N1CCN(C)CC1` registered a Ki of 111 nM. The value for `CN1CCN(Cc2ccccc2)CC1` was 2000 nM; that for `CCN(CC)CC(c1ccccc1C(F)(F)F)N1CCN(C)CC1` (configuration not stated) was 40 nM; that for `CCN(CC)CC(c1ccccc1OC)N1CCN(C)CC1` (configuration not stated) was 190 nM. As for `CCN(CC)CC(Cc1ccccc1)N1CCN(C)CC1` (configuration not stated), the figure is 40 nM; as for `CCN(CC)C[C@@H](c1ccccc1)N1CCN(C)CC1`, 50 nM. Take `CCN(CC)C[C@H](c1ccccc1F)N1CCN(C)CC1`: the affinity, expressed as Ki, was 14 nM. In turn, `CCN(CC)Cc1ccccc1N1CCN(C(=O)[C@@H](Cc2ccc(Cl)cc2)NC(=O)[C@H]2Cc3ccccc3CN2)CC1` came in with a Ki of 14 nM.

`CCN(CC)CC(c1ccccc1)N1CCN(C)CC1` (configuration not stated) gave an inhibitory constant (Ki) of 90 nM.

In general, Ki refers to the equilibrium dissociation constant of an inhibitor or competing ligand from its target.
